SMILES strings stand for the structures. Where only a bound is given, the exact number is not on record here.

The target of one assay is T1, KRAS G12D (Homo sapiens, UniProt P01116, G12D).
T1 construct: AsPc-1-KRAS (G12D)-HiBit-KI cell (Pharmaron); host or cells: AsPc-1-KRAS (G12D)-HiBit-KI cells (HiBiT knock-in at the endogenous KRAS locus)
T1 sequence (P01116 1-188 isoform P01116-2 G12D): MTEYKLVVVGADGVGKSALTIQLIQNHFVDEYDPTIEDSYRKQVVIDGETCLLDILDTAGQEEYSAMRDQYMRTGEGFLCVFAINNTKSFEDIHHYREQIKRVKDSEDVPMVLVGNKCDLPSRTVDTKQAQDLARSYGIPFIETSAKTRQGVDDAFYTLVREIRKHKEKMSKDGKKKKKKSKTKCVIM
In words: KRAS G12D HiBit assay. In kind it is cell-based. Conditions: AsPc-1-KRAS (G12D)-HiBit-KI cell, compound treatment for 24 hours, absolute DC50; class symbols. How it is done: Day 1. […] Allowed cells to reach approximately 80% confluence before splitting. Rinsed cultivated cells in T-75 flasks with 5 mL PBS (Solarbio, P1020-500). […] Inactivated trypsin by adding excessive serum containing medium. Harvested the cells from flask into cell culture medium and counted the cell number.
Day 2. Test compounds were dissolved at 0.3 mM in DMSO (Solarbio, D8371) as stock solution. […] Performed 3-fold, 10-points dilution via transferring 15 μL compound into 30 μL DMSO by using TECAN liquid handler (TECAN, Freedom EVO200).
Day 3. After compound treatment for 24 hours, removed the plate from incubators and equilibrated at room temperature for 15 minutes. Prepared the HiBit reagent (Promega, N3040) by mixing 10 mL of Nano-Glo®-HiBiT Lytic Buffer with 200 μL of Nano-Glo®-HiBiT Lytic Substrate and 100 μL of LgBiT Protein. Added 20 μL of HiBit reagent into each well of the cell plate and spun the plates at room temperature at 1,000 RPM for 1 minute.
The inhibition activity was calculated using the following formula:
[formula] where HC (high control) is obtained from cells treated with 0.1% DMSO only.
Regarding `C#Cc1c(F)ccc2cccc(-c3ncc4c(N5CCC[C@@](C)(O)C5)nc(OCC5(CN6CCC(CN7CCC(c8ccc9c(c8)n(C)c(=O)n9C8CCC(=O)NC8=O)CC7)CC6)CC5)nc4c3F)c12` (stereo partly drawn) [Compound 48], the DC50 is over 300 nM.
Turning to `CCc1c(F)ccc2cc(O)cc(-c3ncc4c(N5CCC[C@@](C)(O)C5)nc(OC[C@@]56CCCN5[C@H](COC(=O)NCCOCCOc5ccc7c(c5)n(C)c(=O)n7C5CCC(=O)NC5=O)CC6)nc4c3F)c12` (stereo partly drawn) [Compound 112, ((3S,7aS)-7a-(((7-(8-ethyl-7-fluoro-3-hydroxynaphthalen-1-yl)-8-fluoro-4-((R)-3-hydroxy-3-methylpiperidin-1-yl)pyrido[4,3-d]pyrimidin-2-yl)oxy)methyl)hexahydro-1H-pyrrolizin-3-yl)methyl (2-(2-((1-(2,6-dioxopiperidin-3-yl)-3-methyl-2-oxo-2,3-dihydro-1H-benzo[d]imidazol-5-yl)oxy)ethoxy)ethyl) carbamate], the DC50 is over 300 nM.
Still for that read-out and setting: as for `C#Cc1c(F)ccc2cc(O)cc(-c3ncc4c(N5CCC[C@@](C)(O)C5)nc(OCC5(CN6CCC(CN7CCN(c8ccc9c(c8)C(=O)N(C8CCC(=O)NC8=O)C9=O)CC7)CC6)CC5)nc4c3F)c12` (stereo partly drawn) [Compound 46], the figure is under 100 nM; as for `CCc1c(F)ccc2cc(O)cc(-c3ncc4c(N5CCC[C@@](C)(O)C5)nc(OC[C@@]56CCCN5[C@H](COC(=O)NCCOCCOCCOc5ccc7c(c5)n(C)c(=O)n7C5CCC(=O)NC5=O)CC6)nc4c3F)c12` (stereo partly drawn) [Compound 113, ((3S,7aS)-7a-(((7-(8-Ethyl-7-fluoro-3-hydroxynaphthalen-1-yl)-8-fluoro-4-((R)-3-hydroxy-3-methylpiperidin-1-yl)pyrido[4,3-d]pyrimidin-2-yl)oxy)methyl)hexahydro-1H-pyrrolizin-3-yl)methyl (2-(2-(2-((1-(2,6-dioxopiperidin-3-yl)-3-methyl-2-oxo-2,3-dihydro-1H-benzo[d]imidazol-5-yl)oxy)ethoxy)ethoxy)ethyl) carbamate], over 300 nM.
`C#Cc1c(F)ccc2cc(O)cc(-c3ncc4c(N5CCC[C@@](C)(O)C5)nc(OC[C@@]56CCCN5[C@H](COC(=O)NCCOCCOc5ccc7c(c5)n(C)c(=O)n7C5CCC(=O)NC5=O)CC6)nc4c3F)c12` (stereo partly drawn) [Compound 114, ((3S,7aS)-7a-(((7-(8-Ethynyl-7-fluoro-3-hydroxynaphthalen-1-yl)-8-fluoro-4-((R)-3-hydro-xy-3-methylpiperidin-1-yl)pyrido[4,3-d]pyrimidin-2-yl)oxy)methyl)hexahydro-1H-pyrrolizin-3-yl)methyl (2-(2-((1-(2,6-dioxopiperidin-3-yl)-3-methyl-2-oxo-2,3-dihydro-1H-benzo[d]imidazol-5-yl)oxy)ethoxy)ethyl) carbamate] showed a DC50 of over 300 nM.
Still for that read-out and setting: as for `C#Cc1c(F)ccc2cccc(-c3ncc4c(N5CCC[C@@](C)(O)C5)nc(OC[C@@]56CCCN5[C@H](COC(=O)N5CCC(CN7CCC(c8ccc9c(c8)n(C8CCC(=O)NC8=O)c(=O)n9C)CC7)CC5)CC6)nc4c3F)c12` (stereo partly drawn) [Compound 136], the figure is over 300 nM.
Same read-out and setting: as for `C#Cc1c(F)ccc2cccc(-c3ncc4c(N5CCC[C@@](C)(O)C5)nc(OCC5(CN6CCC(N7CCN(c8ccc9c(c8)n(C)c(=O)n9C8CCC(=O)NC8=O)CC7)CC6)CC5)nc4c3F)c12` (stereo partly drawn) [Compound 29], the figure is over 300 nM; as for `C#Cc1c(F)ccc2cccc(-c3ncc4c(N5CCC[C@@](C)(O)C5)nc(OCC5(CN6CCC(N7CCC(c8ccc9c(c8)n(C)c(=O)n9C8CCC(=O)NC8=O)CC7)CC6)CC5)nc4c3F)c12` (stereo partly drawn) [Compound 39], over 300 nM; as for `C#Cc1c(F)ccc2cccc(-c3ncc4c(N5CCC[C@@](C)(O)C5)nc(OCC5(CN6CCC7(CC6)CC(N6CCC(c8ccc9c(C%10CCC(=O)NC%10=O)nn(C)c9c8)CC6)C7)CC5)nc4c3F)c12` (stereo partly drawn) [Compound 35], over 300 nM.
Regarding `C#Cc1c(F)ccc2cccc(-c3ncc4c(N5CCC[C@@](C)(O)C5)nc(OCC5(CN6CCC7(CC6)CC(N6CCC(c8ccc9c(c8)n(C)c(=O)n9C8CCC(=O)NC8=O)CC6)C7)CC5)nc4c3F)c12` (stereo partly drawn) [Compound 36], the DC50 is over 300 nM.
On the same count and under the same terms, to `C#Cc1c(F)ccc2cc(O)cc(-c3ncc4c(N5CCC[C@@](C)(O)C5)nc(OCC5(CN6CCC7(CC6)CC(N6CCC(c8ccc9c(c8)n(C)c(=O)n9C8CCC(=O)NC8=O)CC6)C7)CC5)nc4c3F)c12` (stereo partly drawn) [Compound 54] belongs under 100 nM.
Regarding `C#Cc1c(F)ccc2cc(O)cc(-c3ncc4c(N5CCC[C@@](C)(O)C5)nc(OCC5(CN6CCN(C7CCN(c8ccc9c(c8)n(C)c(=O)n9C8CCC(=O)NC8=O)CC7)CC6)CC5)nc4c3F)c12` (stereo partly drawn) [Compound 45], the DC50 is under 100 nM.
Compound `C#Cc1c(F)ccc2cccc(-c3ncc4c(N5CCC[C@@](C)(O)C5)nc(OCC5(CN6CCC7(CCC(c8cccc9c8n(C)c(=O)n9C8CCC(=O)NC8=O)CC7)CC6)CC5)nc4c3F)c12` (stereo partly drawn) [Compound 66] came in with a DC50 of over 300 nM.
Same read-out and setting: as for `C#Cc1c(F)ccc2cccc(-c3ncc4c(N5CCC[C@@](C)(O)C5)nc(OCC5(CN6CCN(CCN7CCN(c8ccc9c(c8)n(C)c(=O)n9C8CCC(=O)NC8=O)CC7)CC6)CC5)nc4c3F)c12` (stereo partly drawn) [Compound 27], the figure is over 300 nM; as for `C#Cc1c(F)ccc2cc(O)cc(-c3ncc4c(N5CCC[C@@](C)(O)C5)nc(OCC5(CN6CCC(N7CCC(c8cccc9c8n(C)c(=O)n9C8CCC(=O)NC8=O)CC7)CC6)CC5)nc4c3F)c12` (stereo partly drawn) [Compound 85], under 100 nM.
The compound `C#Cc1c(F)ccc2cc(O)cc(-c3ncc4c(N5CCC[C@@](C)(O)C5)nc(OCC5(CN6CCC(N7CCC(c8ccc9c(c8)n(C)c(=O)n9C8CCC(=O)NC8=O)CC7)CC6)CC5)nc4c3F)c12` (stereo partly drawn) [Compound 59] gave a DC50 of under 100 nM.
Same read-out and setting: as for `C#Cc1c(F)ccc2cccc(-c3ncc4c(N5CCC[C@@](C)(O)C5)nc(OCC5(CN6CCN(Cc7cccc8c7n(C)c(=O)n8C7CCC(=O)NC7=O)CC6)CC5)nc4c3F)c12` (stereo partly drawn) [Compound 61], the figure is over 300 nM; as for `C#Cc1c(F)ccc2cc(O)cc(-c3ncc4c(N5CCC[C@@](C)(O)C5)nc(OC[C@@]56CCCN5[C@H](COC(=O)NCCOCCOCCOc5ccc7c(c5)n(C)c(=O)n7C5CCC(=O)NC5=O)CC6)nc4c3F)c12` (stereo partly drawn) [Compound 115, ((3S,7aS)-7a-(((7-(8-ethynyl-7-fluoro-3-hydroxynaphthalen-1-yl)-8-fluoro-4-((R)-3-hydroxy-3-methylpiperidin-1-yl)pyrido[4,3-d]pyrimidin-2-yl)oxy)methyl)hexahydro-1H-pyrrolizin-3-yl)methyl (2-(2-(2-((1-(2,6-dioxopiperidin-3-yl)-3-methyl-2-oxo-2,3-dihydro-1H-benzo[d]imidazol-5-yl)oxy)ethoxy)ethoxy)ethyl) carbamate], over 300 nM; as for `C#Cc1c(F)ccc2cccc(-c3ncc4c(N5CCC[C@@](C)(O)C5)nc(OCC5(CN6CCC7(CC6)CC(N6CCN(c8ccc9c(c8)n(C)c(=O)n9C8CCC(=O)NC8=O)CC6)C7)CC5)nc4c3F)c12` (stereo partly drawn) [Compound 41], over 300 nM.
The same measure, in the same setting: as for `C#Cc1c(F)ccc2cccc(-c3ncc4c(N5CCC[C@@](C)(O)C5)nc(OC[C@@]56CCCN5[C@H](COC(=O)NCCOCCOCCOc5ccc7c(c5)n(C)c(=O)n7C5CCC(=O)NC5=O)CC6)nc4c3F)c12` (stereo partly drawn) [Compound 108, ((3S,7aS)-7a-(((7-(8-ethynyl-7-fluoronaphthalen-1-yl)-8-fluoro-4-((R)-3-hydroxy-3-methylpiperidin-1-yl)pyrido[4,3-d]pyrimidin-2-yl)oxy)methyl)hexahydro-1H-pyrrolizin-3-yl)methyl (2-(2-(2-((1-(2,6-dioxopiperidin-3-yl)-3-methyl-2-oxo-2,3-dihydro-1H-benzo[d]imidazol-5-yl)oxy)ethoxy)ethoxy)ethyl) carbamate], the figure is over 300 nM; as for `C#Cc1c(F)ccc2cccc(-c3ncc4c(N5CCC[C@@](C)(O)C5)nc(OC[C@@]56CCCN5[C@H](COC(=O)NCCOCCOc5ccc7c(c5)n(C)c(=O)n7C5CCC(=O)NC5=O)CC6)nc4c3F)c12` (stereo partly drawn) [Compound 107], over 300 nM; as for `C#Cc1c(F)ccc2cc(O)cc(-c3ncc4c(N5CCC[C@@](C)(O)C5)nc(OCC5(CN6CCC(N7CCN(c8ccc9c(c8)n(C)c(=O)n9C8CCC(=O)NC8=O)CC7)CC6)CC5)nc4c3F)c12` (stereo partly drawn) [Compound 30], under 100 nM.
As to `C#Cc1c(F)ccc2cccc(-c3ncc4c(N5CCC[C@@](C)(O)C5)nc(OCC5(CN6CCN(Cc7ccc8c(c7)n(C)c(=O)n8C7CCC(=O)NC7=O)CC6)CC5)nc4c3F)c12` (stereo partly drawn) [Compound 37], the DC50 is over 300 nM.

Staying with this assay, now noted: AsPc-1-KRAS (G12D)-HiBit-KI cell, compound treatment for 24 hours, absolute DC50; numeric bounds given in place of class symbols.
As to `C#Cc1c(F)ccc2cccc(-c3ncc4c(N5CCC[C@@](C)(O)C5)nc(OC5CCN(CC(=O)N6CCC7(CC6)CC(N6CCC(c8ccc9c(c8)n(C)c(=O)n9C8CCC(=O)NC8=O)CC6)C7)CC5)nc4c3F)c12` (stereo partly drawn) [Compound 87], the DC50 was over 100 nM.
Still for that read-out and setting: as for `C#Cc1c(F)ccc2cccc(-c3ncc4c(N5CCC[C@@](C)(O)C5)nc(OCC5(CN6CCC7(CC6)CCN(c6ccc8c(c6)n(C)c(=O)n8C6CCC(=O)NC6=O)CC7)CC5)nc4c3F)c12` (stereo partly drawn) [Compound 38], the figure is over 100 nM.

The same assay, now with this note: AsPc-1-KRAS (G12D)-HiBit-KI cell, compound treatment for 24 hours; class symbols.
Turning to `C#Cc1c(F)ccc2cccc(-c3ncc4c(N5CCC[C@@](C)(O)C5)nc(OC[C@@]56CCCN5[C@H](COC(=O)NCCOCCOCCOc5ccc7c(c5)n(C)c(=O)n7C5CCC(=O)NC5=O)CC6)nc4c3F)c12` (stereo partly drawn) [Compound 108, ((3S,7aS)-7a-(((7-(8-ethynyl-7-fluoronaphthalen-1-yl)-8-fluoro-4-((R)-3-hydroxy-3-methylpiperidin-1-yl)pyrido[4,3-d]pyrimidin-2-yl)oxy)methyl)hexahydro-1H-pyrrolizin-3-yl)methyl (2-(2-(2-((1-(2,6-dioxopiperidin-3-yl)-3-methyl-2-oxo-2,3-dihydro-1H-benzo[d]imidazol-5-yl)oxy)ethoxy)ethoxy)ethyl) carbamate], the Dmax lay within 15 to 50%.
Same read-out and setting: to `C#Cc1c(F)ccc2cccc(-c3ncc4c(N5CCC[C@@](C)(O)C5)nc(OC[C@@]56CCCN5[C@H](COC(=O)NCCOCCOc5ccc7c(c5)n(C)c(=O)n7C5CCC(=O)NC5=O)CC6)nc4c3F)c12` (stereo partly drawn) [Compound 107] belongs 15 to 50%.
